Legend:
morningglory = assay: Test B pre/postemergence morningglory; assay type: in vivo, Ipomoea hederacea
Method in brief: (§1)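 Herbicidal effect was estimated by eye on a ten-point control scale after plants spent twelve to sixteen days in a greenhouse following soil or foliar treatment. Foliar sprays targeted plants at one to four leaves; all doses were formulated in a non-phytotoxic solvent with surfactant.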

bedstraw = assay: Test B pre/postemergence bedstraw; assay type: in vivo, Galium aparine
Method in brief: as §1

wild oat = assay: Test B pre/postemergence wild oat; assay type: in vivo, Avena fatua
Method in brief: as §1

velvetleaf = assay: Test B pre/postemergence velvetleaf; assay type: in vivo, Abutilon theophrasti
Method in brief: as §1

[1] = Postemergence, Rate 62 g/ha, scale 0 to 10, 0 is no effect, 10 is complete control
[2] = Postemergence, Rate 250 g/ha, scale 0 to 10, 0 no effect, 10 complete control
[3] = Preemergence, Rate 31 g/ha, visual rating, scale 0 to 10 (0 no effect, 10 complete control)
[4] = Preemergence, Rate 62 g/ha, scale 0 to 10, 0 is no effect, 10 is complete control
[5] = Preemergence, Rate 125 g/ha, scale 0 to 10 (0 no effect, 10 complete control)
[6] = Preemergence, Rate 250 g/ha, scale of 0 to 10 where 0 is no effect and 10 is complete control
[7] = Rate 31 g/ha, Postemergence, scale 0 to 10
[8] = Rate 125 g/ha, Postemergence, scale 0 to 10, 0 no effect, 10 complete control
[9] = Preemergence, Rate 500 g/ha, scale 0 (no effect) to 10 (complete control)
[10] = Rate 500 g/ha, Postemergence, scale 0 to 10, 0 no effect, 10 complete control
[11] = Preemergence, Rate 62 g/ha, scale 0 to 10 (0 no effect, 10 complete control)

SMILES	Morningglory plant response rating (morningglory; [1])	Morningglory plant response rating (morningglory; [2])	Plant response rating, Morningglory (morningglory; [5])	Plant response rating, Morningglory (morningglory; [6])	Morningglory plant response rating (morningglory; [8])	Bedstraw plant response rating (bedstraw; [1])	Bedstraw plant response rating (bedstraw; [2])	Plant response rating, Bedstraw (bedstraw; [5])	Plant response rating, Bedstraw (bedstraw; [6])	Bedstraw plant response rating (bedstraw; [8])	Wild oats plant response rating (wild oat; [1])	Wild oats plant response rating (wild oat; [2])	Plant response rating, Wild oats (wild oat; [5])	Plant response rating, Wild oats (wild oat; [6])	Wild oats plant response rating (wild oat; [8])	Velvetleaf plant response rating (velvetleaf; [1])	Velvetleaf plant response rating (velvetleaf; [2])	Plant response rating, Velvetleaf (velvetleaf; [5])	Plant response rating, Velvetleaf (velvetleaf; [6])	Velvetleaf plant response rating (velvetleaf; [8])	also measured
CCN(C(=O)n1oc(=O)n(-c2ccccc2OC)c1=O)C1CCCCC1 [Compound 29]	0	0	0	0	0	0	0	0	0	0	0	0	0	0	0	0	0	0	0	0	Morningglory plant response rating (morningglory; [3]): 0; Plant response rating, Morningglory (morningglory; [4]): 0; Morningglory plant response rating (morningglory; [7]): 0; Bedstraw plant response rating (bedstraw; [3]): 0; Plant response rating, Bedstraw (bedstraw; [4]): 0; Bedstraw plant response rating (bedstraw; [7]): 0; Wild oats plant response rating (wild oat; [3]): 0; Velvetleaf plant response rating (velvetleaf; [3]): 0; Plant response rating, Velvetleaf (velvetleaf; [4]): 0
COc1ccccc1-n1c(=O)on(C(=O)N(c2ccc(F)cc2F)C(C)C)c1=O [Compound 31]	0	3	0	0	1	0	0	0	0	0	0	0	2	4	0	0	0	0	0	0	Morningglory plant response rating (morningglory; [3]): 0; Plant response rating, Morningglory (morningglory; [4]): 0; Morningglory plant response rating (morningglory; [7]): 0; Bedstraw plant response rating (bedstraw; [3]): 0; Plant response rating, Bedstraw (bedstraw; [4]): 0; Bedstraw plant response rating (bedstraw; [7]): 0; Wild oats plant response rating (wild oat; [3]): 0; Velvetleaf plant response rating (velvetleaf; [3]): 0; Plant response rating, Velvetleaf (velvetleaf; [4]): 0
COc1ccc(-n2c(=O)on(C(=O)N(c3ccc(F)cc3F)C(C)C)c2=O)c(OC)c1 [Compound 32]	6	8	0	2	7	0	0	0	0	0	0	0	0	2	0	0	0	0	0	0	Morningglory plant response rating (morningglory; [3]): 0; Plant response rating, Morningglory (morningglory; [4]): 0; Morningglory plant response rating (morningglory; [7]): 6; Bedstraw plant response rating (bedstraw; [3]): 0; Plant response rating, Bedstraw (bedstraw; [4]): 0; Bedstraw plant response rating (bedstraw; [7]): 0; Wild oats plant response rating (wild oat; [3]): 0; Velvetleaf plant response rating (velvetleaf; [3]): 0; Plant response rating, Velvetleaf (velvetleaf; [4]): 0
Cc1ccccc1-n1c(=O)on(C(=O)N(c2ccc(F)c(F)c2)C(C)C)c1=O [Compound 48]	0	0	0	0	0	0	0	0	0	0	0	0	0	2	0	0	0	0	0	0	Plant response rating, Morningglory (morningglory; [4]): 0; Morningglory plant response rating (morningglory; [9]): 0; Morningglory plant response rating (morningglory; [10]): 1; Plant response rating, Bedstraw (bedstraw; [4]): 0; Bedstraw plant response rating (bedstraw; [9]): 0; Wild oats plant response rating (wild oat; [9]): 2; Wild oats plant response rating (wild oat; [10]): 0; Plant response rating, Velvetleaf (velvetleaf; [4]): 0; Velvetleaf plant response rating (velvetleaf; [9]): 0; Velvetleaf plant response rating (velvetleaf; [10]): 0
Cc1cc(C)c(-n2c(=O)on(C(=O)N(c3ccc(Cl)cc3)C(C)C)c2=O)c(C)c1 [Compound 61]	2	4	0	0	2	2	6	0	2	3	0	0	0	0	0	0	0	0	0	0	Morningglory plant response rating (morningglory; [11]): 0; Morningglory plant response rating (morningglory; [9]): 0; Morningglory plant response rating (morningglory; [10]): 8; Bedstraw plant response rating (bedstraw; [11]): 0; Bedstraw plant response rating (bedstraw; [9]): 2; Wild oats plant response rating (wild oat; [11]): 0; Wild oats plant response rating (wild oat; [9]): 3; Wild oats plant response rating (wild oat; [10]): 0; Velvetleaf plant response rating (velvetleaf; [11]): 0; Velvetleaf plant response rating (velvetleaf; [9]): 0; Velvetleaf plant response rating (velvetleaf; [10]): 0

Source: patent US6737383B1, “Herbicidal oxadiazolidines” (priority 1999, dated 2004)
